Values quoted from earlier work in patent publication US20110207823A1, “12-HOUR SUSTAINED-RELEASE METOCLOPRAMIDE” (POSIVISIONARY SOLUTIONS LLP, priority 2008, published 2011).

Conditions: immediate release dosages

Compound: CCN(CC)CCNC(=O)c1cc(Cl)c(N)cc1OC [metoclopramide, Metoclopramide]
- metoclopramide peaks in plasma with undesirable side effects (akathisia): above 100 nanograms per milliliter
